Data as given in article PMC6386929, “Evaluation of the Antimicrobial Activity of Cationic Peptides Loaded in Surface-Modified Nanoliposomes against Foodborne Bacteria” (International Journal of Molecular Sciences, 2019).
Where no end group is shown, it is not given here.

Experiments:
[1] = test system: E. coli; details: cited from earlier work
Source text: (§1) Alyteserin-1c is an AMP comprising a 23 amino acid residue (net charge: +2) and was first isolated from norepinephrine-stimulated skin secretions from the midwife toad Alytes obstetricans. […] Although AMPs are an alternative means for eliminating bacteria in foods, due to their biocompatibility, biodegradability, broad spectrum of activity and potent bactericidal properties, most ...

[2] = test system: human erythrocytes; details: cited from earlier work
Source text: as §1

[3] = test system: L. monocytogenes ATCCbaa751; format: cell-based, Listeria monocytogenes
Source text: (§2) L. monocytogenes ATCCbaa751 and E. coli ATCC25922, were obtained from the American Type Culture Collection (ATCC; Rockville, MD, USA). NovaPEG Rink Amida resin, Fmoc-protected amino acids, 2-(1H-benzotriazole-1-yl)-1,1,3,3-tetramethyluronium tetrafluoro-borate (TBTU), Piperidine, N,N-Diisopropylethylamine (DIEA), Ninhydrin, Dimethylformamide (DMF), Trifluoroacetic acid (TFA), 1,2-Ethanedithiol (EDT), Triisopropylsilane (TIS) and Mueller Hinton Broth (MHB) were purchased in Merck (Darmstadt, Germany). Cholesterol, Epikuron 200® and dioleoyl-phosphatidyl-ethanolamine (DOPE) were obtained from Avanti Polar Lipids (Alabaster, Alabama, USA). Eudragit® E-100 was purchased in Evonik (Darmstadt, Germany). Ampicillin (Fersinsa Gb) was supplied by Tecnoquímicas S.A. (Cali, Colombia) and Gentamicin solution (GENFAR®, Cali, Colombia) was purchased from a local pharmacy. The datasets used and materials using during this study are available from the corresponding author on reasonable request.
(§3) Microbial susceptibility tests were performed according to clinical and laboratory standards institute (CLSI) standard methods. Bacteria were inoculated in MHB and incubated overnight at 37 °C. […] After incubation, the minimum inhibitory concentration (MIC) was determined by visual analysis.

[4] = test system: E. coli ATCC25922; format: cell-based, Escherichia coli
Source text: as §2, §3

[5] = Surface tension (pendant drop) and aggregation index (dual-angle DLS) of peptides in aqueous media; format: physicochemical; details: PBS pH 7.2, 138 mM NaCl; peptide 0–50 µM; pendant drop and dual-angle DLS (173° and 13°); triplicate
Experimental: Surface tension measurements of the peptides were carried out using a contact angle meter (OCA15EC Dataphysics Instruments, Filderstadt, Germany) with a software driver (version 4.5.14 SCA22), where the data capture was recorded using an IDS video camera. For this, the pendant-drop method was performed in triplicate, where peptide concentrations between 0 and 50 µM were prepared with ultrapure water and phosphate buffer saline pH 7.2 (PBS, 138 mM NaCl, 3 mM KCl, 1.5 mM NaH2PO4, 8.1 mM Na2HPO4). The samples of peptides +2 and +5 were prepared in serial concentrations between 0 and 50 µM in PBS buffer pH 7.2 at 138 mM of ionic strength. An aliquot was analysed immediately after preparation. Dual angle DLS measurements (173° and 13°) of automatic duration were carried out using a Zetasizer Nano ZSP (Malvern Instruments, Worcestershire, United Kingdom). The Aggregation Index is a parameter based on the mean z-average size measured for the two angles of scattering according to the equation: (1) Aggregation index=[Zfwd/Zbkd−1] where, Zfwd is the average particle size detected by forward scatter optics at 13°. Trace amounts of aggregate are often highly useful for the enhanced detection of large protein aggregates, whereas Zbkd is the particle size average at a detection angle of 173° (non-invasive back-scatter).

Sequence | MIC [1] [µM] | hemolytic activity [2] | MIC [3] [µM] | MIC [4] [µM] | concentration at which changes in surface tension and aggregation index are achieved [5] [µM]
GLKEIFKAGLGSLVKGIAAHVAS [peptide +2, Alyteserin-1c] | 25 | low hemolytic activity | 125 | 15.2 | 20
GLKRIFKSGLGKLVKGISAHVAS [peptide +5] | – | – | 62.5 | 62.5 | 5 to 10
